Results reported in patent publication EP0525960B1, “Use of rapamycin for the treatment of adult T-cell leukemia/lymphoma” (AMERICAN HOME PRODUCTS CORPORATION, priority 1991, dated 1993).

Experiments:
Type in all cases: cell-based
[1] = system: ten human HTLV-1 transformed T-cell lines; test: Inhibition of ATL cell proliferation, summary over the panel of ten cell lines; conditions: in 4 of the cell lines at a concentration of 1 nM, read-out: reduction in proliferation
Protocol: (§1) The effect of rapamycin on ATL was established in an in vitro standard pharmacological test procedure using ten human HTLV-1 transformed T-cell lines cultured from ATL patients. These cell lines are presently the best models for ATL in humans. Cyclosporin A (CsA) was also evaluated for the purpose of comparison. The procedure used and results obtained are described below.
ATL cell lines were established according to known literature procedures. ATL5S, ATL3I, and ATL1K were established according to the method of Hoshino [Proc. Natl. Acad. Sci, 80: 6061(1983)]. The cell lines 31008, 31009, 31016 and AT(EGG) were established from peripheral blood of HTLV-1 infected individuals via co-culture with cord blood lymphocytes. The cell line MALN was isolated from lymphoid tumor tissue of an HTLV-1 infected ATL patient seen at Jackson Memorial/University of Miami Medical Center. [Harrington, W.J., Jr., J. Acq. Imm. Def. Dis., 4: 284 (1991)]. The primary cultures BL and GP were initiated from peripheral blood of ATL patients. […]
Cells were adjusted to a concentration of 1x10⁶ cells/mL in RPMI 1640 with 15% fetal bovine serum and were supplemented with 50 U/mL penicillin, 50 µg/mL streptomycin, and 2 mM glutamine. […] Drug concentrations evaluated ranged from 1µM to 100 fM. […] Thymidine incorporation was measured by liquid scintillation counting, and the results expressed in counts per minute (cpm). […]

GP = test: Inhibition of ATL cell proliferation (tritiated thymidine incorporation); conditions: Homo sapiens, 24 hours, read-out: PERCENT INHIBITION OF ATL CELL PROLIFERATION
Protocol: as §1
(§2) ATL cell lines were established according to known literature procedures. ATL5S, ATL3I, and ATL1K were established according to the method of Hoshino [Proc. Natl. Acad. Sci, 80: 6061(1983)]. The cell lines 31008, 31009, 31016 and AT(EGG) were established from peripheral blood of HTLV-1 infected individuals via co-culture with cord blood lymphocytes. The cell line MALN was isolated from lymphoid tumor tissue of an HTLV-1 infected ATL patient seen at Jackson Memorial/University of Miami Medical Center. [Harrington, W.J., Jr., J. Acq. Imm. Def. Dis., 4: 284 (1991)]. The primary cultures BL and GP were initiated from peripheral blood of ATL patients. The MALN, BL, and GP cell lines were initiated without co-cultivation.
(§3) Cells were adjusted to a concentration of 1x10⁶ cells/mL in RPMI 1640 with 15% fetal bovine serum and were supplemented with 50 U/mL penicillin, 50 µg/mL streptomycin, and 2 mM glutamine. […] Drug concentrations evaluated ranged from 1µM to 100 fM. Cultures were incubated at 37°C, 5% CO₂ for 24 hours followed by a 4 hr. pulse with 0.5 µCi of tritiated thymidine. Thymidine incorporation was measured by liquid scintillation counting, and the results expressed in counts per minute (cpm). The results obtained from the mean of four evaluations at each concentration were compared with control values to determine percent inhibition. The following formula was used to calculate the percent inhibition: Percent Inhibition =(cpm[no drug] - cpm[drug])/(cpm[no drug])x 100 [formula] The percent inhibition obtained with rapamycin is shown in the following table.

31008 = test: as above; conditions: Homo sapiens, 24 hours, read-out: PERCENT INHIBITION OF ATL CELL PROLIFERATION
Protocol: as §1, §2, §3

ATEGG = test: as above; conditions: Homo sapiens, 24 hours, read-out: PERCENT INHIBITION OF ATL CELL PROLIFERATION
Protocol: as §1, §2, §3

31016 = test: as above; conditions: Homo sapiens, 24 hours, read-out: PERCENT INHIBITION OF ATL CELL PROLIFERATION
Protocol: as §1, §2, §3

ATL3I = test: as above; conditions: Homo sapiens, 24 hours, read-out: PERCENT INHIBITION OF ATL CELL PROLIFERATION
Protocol: as §1, §2, §3

MALN = test: as above; conditions: Homo sapiens, 24 hours, read-out: PERCENT INHIBITION OF ATL CELL PROLIFERATION
Protocol: as §1, §2, §3

BL = test: as above; conditions: Homo sapiens, 24 hours, read-out: PERCENT INHIBITION OF ATL CELL PROLIFERATION
Protocol: as §1, §2, §3

ATL1K = test: as above; conditions: Homo sapiens, 24 hours, read-out: PERCENT INHIBITION OF ATL CELL PROLIFERATION
Protocol: as §1, §2, §3

31009 = test: as above; conditions: Homo sapiens, 24 hours, read-out: PERCENT INHIBITION OF ATL CELL PROLIFERATION
Text: as §2
(§4) Cells were adjusted to a concentration of 1x10⁶ cells/mL in RPMI 1640 with 15% fetal bovine serum and were supplemented with 50 U/mL penicillin, 50 µg/mL streptomycin, and 2 mM glutamine. […] Drug concentrations evaluated ranged from 1µM to 100 fM. Cultures were incubated at 37°C, 5% CO₂ for 24 hours followed by a 4 hr. pulse with 0.5 µCi of tritiated thymidine. Thymidine incorporation was measured by liquid scintillation counting, and the results expressed in counts per minute (cpm).

ATL5S = test: as above; conditions: Homo sapiens, 24 hours, read-out: PERCENT INHIBITION OF ATL CELL PROLIFERATION
Text: as §2, §4

For `CO[C@H]1C[C@@H]2CC[C@@H](C)[C@@](O)(O2)C(=O)C(=O)N2CCCC[C@H]2C(=O)O[C@H]([C@H](C)C[C@@H]2CC[C@@H](O)[C@H](OC)C2)CC(=O)[C@H](C)/C=C(\C)[C@@H](O)[C@@H](OC)C(=O)[C@H](C)C[C@H](C)/C=C/C=C/C=C/1C` [Rapamycin], the inhibition at 0.001 µM [1] was 50%, the inhibition at 1 pM (GP; Rapamycin Concentration 1 pM) was 20% and the inhibition at 10 pM (GP; Rapamycin Concentration 10 pM) was 14%. The inhibition at 0.0001 µM (GP; Rapamycin Concentration 100 pM) was 39%, the inhibition at 0.001 µM (GP; Rapamycin Concentration 1 nM) was 42% and the inhibition at 0.01 µM (GP; Rapamycin Concentration 10 nM) was 46%. The inhibition at 0.1 µM (GP; Rapamycin Concentration 100 nM) was 46%, the inhibition at 1 µM (GP; Rapamycin Concentration 1 µM) was 54% and the inhibition at 100 fM (GP; Rapamycin Concentration 100 fM) was 23%. It also gave an inhibition at 1 pM (31008; Rapamycin Concentration 1 pM) of 30%, an inhibition at 10 pM (31008; Rapamycin Concentration 10 pM) of 31% and an inhibition at 0.0001 µM (31008; Rapamycin Concentration 100 pM) of 45%. The inhibition at 0.001 µM (31008; Rapamycin Concentration 1 nM) was 54%, the inhibition at 0.01 µM (31008; Rapamycin Concentration 10 nM) was 58% and the inhibition at 0.1 µM (31008; Rapamycin Concentration 100 nM) was 68%. For the same compound, the inhibition at 1 µM (31008; Rapamycin Concentration 1 µM) was 69%, the inhibition at 100 fM (31008; Rapamycin Concentration 100 fM) was 29% and the inhibition at 1 pM (ATEGG; Rapamycin Concentration 1 pM) was 48%. It also gave an inhibition at 10 pM (ATEGG; Rapamycin Concentration 10 pM) of 44%, an inhibition at 0.0001 µM (ATEGG; Rapamycin Concentration 100 pM) of 49% and an inhibition at 0.001 µM (ATEGG; Rapamycin Concentration 1 nM) of 53%. For the same compound, the inhibition at 0.01 µM (ATEGG; Rapamycin Concentration 10 nM) was 45%, the inhibition at 0.1 µM (ATEGG; Rapamycin Concentration 100 nM) was 60% and the inhibition at 1 µM (ATEGG; Rapamycin Concentration 1 µM) was 58%. The inhibition at 100 fM (ATEGG; Rapamycin Concentration 100 fM) was 44%, the inhibition at 1 pM (31016; Rapamycin Concentration 1 pM) was 50% and the inhibition at 10 pM (31016; Rapamycin Concentration 10 pM) was 47%. The inhibition at 0.0001 µM (31016; Rapamycin Concentration 100 pM) was 49%, the inhibition at 0.001 µM (31016; Rapamycin Concentration 1 nM) was 48% and the inhibition at 0.01 µM (31016; Rapamycin Concentration 10 nM) was 49%. The inhibition at 0.1 µM (31016; Rapamycin Concentration 100 nM) was 56%, the inhibition at 1 µM (31016; Rapamycin Concentration 1 µM) was 59% and the inhibition at 100 fM (31016; Rapamycin Concentration 100 fM) was 44%. It also gave an inhibition at 1 pM (ATL3I; Rapamycin Concentration 1 pM) of 11%, an inhibition at 10 pM (ATL3I; Rapamycin Concentration 10 pM) of 6% and an inhibition at 0.0001 µM (ATL3I; Rapamycin Concentration 100 pM) of 11%. It also gave an inhibition at 0.001 µM (ATL3I; Rapamycin Concentration 1 nM) of 18%, an inhibition at 0.01 µM (ATL3I; Rapamycin Concentration 10 nM) of 15% and an inhibition at 0.1 µM (ATL3I; Rapamycin Concentration 100 nM) of 17%. For the same compound, the inhibition at 1 µM (ATL3I; Rapamycin Concentration 1 µM) was 28%, the inhibition at 100 fM (ATL3I; Rapamycin Concentration 100 fM) was 7% and the inhibition at 1 pM (MALN; Rapamycin Concentration 1 pM) was 36%. For the same compound, the inhibition at 10 pM (MALN; Rapamycin Concentration 10 pM) was 26%, the inhibition at 0.0001 µM (MALN; Rapamycin Concentration 100 pM) was 37% and the inhibition at 0.001 µM (MALN; Rapamycin Concentration 1 nM) was 43%. For the same compound, the inhibition at 0.01 µM (MALN; Rapamycin Concentration 10 nM) was 41%, the inhibition at 0.1 µM (MALN; Rapamycin Concentration 100 nM) was 54% and the inhibition at 1 µM (MALN; Rapamycin Concentration 1 µM) was 55%. It also gave an inhibition at 100 fM (MALN; Rapamycin Concentration 100 fM) of 36%, an inhibition at 1 pM (BL; Rapamycin Concentration 1 pM) of 56% and an inhibition at 10 pM (BL; Rapamycin Concentration 10 pM) of 55%. The inhibition at 0.0001 µM (BL; Rapamycin Concentration 100 pM) was 65%, the inhibition at 0.001 µM (BL; Rapamycin Concentration 1 nM) was 73% and the inhibition at 0.01 µM (BL; Rapamycin Concentration 10 nM) was 76%. The inhibition at 0.1 µM (BL; Rapamycin Concentration 100 nM) was 79%, the inhibition at 1 µM (BL; Rapamycin Concentration 1 µM) was 80% and the inhibition at 100 fM (BL; Rapamycin Concentration 100 fM) was 51%. The inhibition at 1 pM (ATL1K; Rapamycin Concentration 1 pM) was 15%, the inhibition at 10 pM (ATL1K; Rapamycin Concentration 10 pM) was 12% and the inhibition at 0.0001 µM (ATL1K; Rapamycin Concentration 100 pM) was 23%. It also gave an inhibition at 0.001 µM (ATL1K; Rapamycin Concentration 1 nM) of 26%, an inhibition at 0.01 µM (ATL1K; Rapamycin Concentration 10 nM) of 18% and an inhibition at 0.1 µM (ATL1K; Rapamycin Concentration 100 nM) of 32%. It also gave an inhibition at 1 µM (ATL1K; Rapamycin Concentration 1 µM) of 19%, an inhibition at 100 fM (ATL1K; Rapamycin Concentration 100 fM) of 15% and an inhibition at 1 pM (31009; Rapamycin Concentration 1 pM) of 59%. It also gave an inhibition at 10 pM (31009; Rapamycin Concentration 10 pM) of 47%, an inhibition at 0.0001 µM (31009; Rapamycin Concentration 100 pM) of 61% and an inhibition at 0.001 µM (31009; Rapamycin Concentration 1 nM) of 68%. For the same compound, the inhibition at 0.01 µM (31009; Rapamycin Concentration 10 nM) was 67%, the inhibition at 0.1 µM (31009; Rapamycin Concentration 100 nM) was 70% and the inhibition at 1 µM (31009; Rapamycin Concentration 1 µM) was 71%. It also gave an inhibition at 100 fM (31009; Rapamycin Concentration 100 fM) of 60%, an inhibition at 1 pM (ATL5S; Rapamycin Concentration 1 pM) of 14% and an inhibition at 10 pM (ATL5S; Rapamycin Concentration 10 pM) of 38%. It also gave an inhibition at 0.0001 µM (ATL5S; Rapamycin Concentration 100 pM) of 47%, an inhibition at 0.001 µM (ATL5S; Rapamycin Concentration 1 nM) of 48% and an inhibition at 0.01 µM (ATL5S; Rapamycin Concentration 10 nM) of 49%. The inhibition at 0.1 µM (ATL5S; Rapamycin Concentration 100 nM) was 58%, the inhibition at 1 µM (ATL5S; Rapamycin Concentration 1 µM) was 59% and the inhibition at 100 fM (ATL5S; Rapamycin Concentration 100 fM) was 36%.
